Assays:
[1] = test system: plasma membrane Ca2+-ATPase (PMCA; isoform not resolved); assay type: cell-based
Na+/K+-ATPase (α1β1) = Na+/K+-ATPase (α1β1) (Sus scrofa, UniProt P05024); assay: biochemical

Row | SMILES | % inhibition at 100 nM [1] | IC50 (Na+/K+-ATPase (α1β1)) [nM]
1 | C[C@@H]1O[C@@H](O[C@H]2CC[C@@]3(C)[C@H](CC[C@@H]4[C@@H]3CC[C@]3(C)[C@@H](C5=CC(=O)OC5)CC[C@]43O)C2)CC[C@H]1O [compound 2, digitoxigenin-α-L-amiceto-pyranoside] | ~ 25% inhibition at 100 | 41 ± 3
2 | C[C@@H]1O[C@@H](O[C@H]2CC[C@@]3(C)[C@H](CC[C@@H]4[C@@H]3CC[C@]3(C)[C@@H](C5=CC(=O)OC5)CC[C@]43O)C2)[C@H](O)[C@H](O)[C@H]1O [compound 1, digitoxigenin-α-L-rhamno-pyranoside] |  | 12 ± 1

— publication PMC8671332 (Journal of cellular biochemistry, 2021)
